Laboratory results published in BindingDB's records for doi:10.1016/j.bmcl.2020.127000 (Ajinomoto, 2020).

Experiment: Positive allosteric modulation of human TIR2/TIR3 expressed in PEAKrapid cells assessed as potentiation of sucrose-induced intracellular calcium influx by measuring sucrose EC50 at 30 uM measured for 120 secs by fluorescence based assay

| EC50 [mM] | Compound |
| --- | --- |
| 7.8 | CCCCCCC(=O)NC(C)(C)CC(=O)Nc1cncc(C(=O)O)c1N |
| 10.9 | CC(C)(CC(=O)Nc1cncc(C(=O)O)c1N)NC(=O)CCC1CCCCC1 |
| 7.6 | CC(C)(CC(=O)Nc1cncc(C(=O)O)c1N)NC(=O)C[C@H]1CCNC1 |
| 8.8 | CC(C)(CC(=O)Nc1cncc(C(=O)O)c1N)NC(=O)CC[C@@H](N)Cc1ccccc1 |
| 5.7 | CC(C)C[C@H](N)C(=O)NC(C)(C)CC(=O)Nc1cncc(C(=O)O)c1N |
| 3.7 | CC(C)C[C@H](NC(=O)[C@@H](NC(=O)OC(C)(C)C)C1CCCCC1)C(=O)NC(C)(C)CC(=O)Nc1cncc(C(=O)O)c1N |
| 7.9 | CC(C)C(=O)NC(C)(C)CC(=O)Nc1cncc(C(=O)O)c1N |
| 14.4 | CC(C)(CC(=O)Nc1cncc(C(=O)O)c1N)NC(=O)C1CCNCC1 |
| 7.4 | CC(C)(CC(=O)Nc1cncc(C(=O)O)c1N)NC(=O)C[C@@H]1CCNC1 |
| 7.3 | CC(C)(CC(=O)Nc1cncc(C(=O)O)c1N)NC(=O)[C@@H](N)CC1CCCCC1 |
| 5.4 | CC(C)(CC(=O)Nc1cncc(C(=O)O)c1N)NC(=O)CC1CCCCC1 |
| 2.6 | CC(C)(CC(=O)Nc1cncc(C(=O)O)c1N)NC(=O)[C@@H](N)C1CCCCC1 |
| 6.1 | CC(C)(CC(=O)Nc1cncc(C(=O)O)c1N)NC(=O)C1CCCCC1 |
| 9.3 | CC(C)(CC(=O)Nc1cncc(C(=O)O)c1N)NC(=O)C(C)(C)C |
| 7.8 | CC(C)(CC(=O)Nc1cncc(C(=O)O)c1N)NC(=O)[C@H]1CC[C@H](N)CC1 |
| 3.3 | CC[C@H](C)[C@H](NC(=O)[C@@H](NC(=O)OC(C)(C)C)C1CCCCC1)C(=O)NC(C)(C)CC(=O)Nc1cncc(C(=O)O)c1N |
| 4.3 | CC(C)(CC(=O)Nc1cncc(C(=O)O)c1N)NC(=O)CC1(CN)CCCCC1 |
| 11.1 | CC(C)(CC(=O)Nc1cncc(C(=O)O)c1N)NC(=O)c1ccccc1 |
| 8.4 | CC(C)(CC(=O)Nc1cncc(C(=O)O)c1N)NC(=O)C1(c2ccccc2)CC1 |
| 7.5 | CC(C)(CC(=O)Nc1cncc(C(=O)O)c1N)NC(=O)C1(N)CCCCC1 |

| EC50 [mM] | Compound |
| --- | --- |
| 6.6 | CCCCCC(=O)NC(C)(C)CC(=O)Nc1cncc(C(=O)O)c1N |
| 10.7 | CC(C)(CC(=O)Nc1cncc(C(=O)O)c1N)NC(=O)c1cccc(N)c1 |
| 8.1 | CC(C)(C)CC(=O)NC(C)(C)CC(=O)Nc1cncc(C(=O)O)c1N |
| 9.9 | CCCCCCCC/C=C\CCCCCCCC(=O)NC(C)(C)CC(=O)Nc1cncc(C(=O)O)c1N |
| 2.5 | CC(C)(CC(=O)Nc1cncc(C(=O)O)c1N)NC(=O)[C@@H](NC(=O)[C@@H](N)C1CCCCC1)C1CCCCC1 |
| 8.9 | CC(C)(CC(=O)Nc1cncc(C(=O)O)c1N)NC(=O)c1cccc2c1CCCC2 |
| 7.3 | CC(C)CC(=O)NC(C)(C)CC(=O)Nc1cncc(C(=O)O)c1N |
| 9.3 | CC(C)[C@H](N)C(=O)NC(C)(C)CC(=O)Nc1cncc(C(=O)O)c1N |
| 8 | CC(C)(CC(=O)Nc1cncc(C(=O)O)c1N)NC(=O)C1CCNC1 (centres undefined) |
| 9.8 | CC(C)(CC(=O)Nc1cncc(C(=O)O)c1N)NC(=O)[C@@H]1CCC[C@H](N)C1 |
| 7.3 | CC(C)(CC(=O)Nc1cncc(C(=O)O)c1N)NC(=O)[C@H]1CC[C@@H](N)CC1 |
| 5.6 | CC(C)C[C@H](NC(=O)[C@@H](N)C1CCCCC1)C(=O)NC(C)(C)CC(=O)Nc1cncc(C(=O)O)c1N |
| 11.8 | CCCCCCCCCCCC(=O)NC(C)(C)CC(=O)Nc1cncc(C(=O)O)c1N |
| 8.9 | CC(C)(CC(=O)Nc1cncc(C(=O)O)c1N)NC(=O)c1ccc(N)cc1 |
| 10.2 | CCCCCCCC(=O)NC(C)(C)CC(=O)Nc1cncc(C(=O)O)c1N |
| 5.1 | CC(C)(CC(=O)Nc1cncc(C(=O)O)c1N)NC(=O)CC1CCCC1 |
| 5.6 | CC[C@H](C)[C@H](NC(=O)[C@@H](N)C1CCCCC1)C(=O)NC(C)(C)CC(=O)Nc1cncc(C(=O)O)c1N |
| 7.7 | CC(C)(CC(=O)Nc1cncc(C(=O)O)c1N)NC(=O)[C@H](N)C1CCCCC1 |
| 9.5 | CC(C)(CC(=O)Nc1cncc(C(=O)O)c1N)NC(=O)[C@@H](N)c1ccccc1 |
